From US12600709B2, “Nonpeptide somatostatin type 5 receptor agonists and uses thereof” (Crinetics Pharmaceuticals, Inc., priority 2019, dated 2026) come the findings set out here.

The target of test [1] is T1, human somatostatin receptor subtype 5 (Homo sapiens, UniProt P35346).
T1 construct: expressed in transfected cells
As to the kind of experiment: cAMP assay for SST5R (inhibition of cAMP in CHO-K1 cells). Conditions: for pEC50: inhibition of cAMP via human SST5 receptor, read-out: SST5 potency; for Fold selectivity for SST5 vs SST2: class symbols, SST5 receptor over SST2 receptor. It counts as cell-based. The method, boiled down: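 CHO-K1 cells stably expressing human SSTR5 were treated 20 min at 37 °C with compounds plus 1.6 μM NKH477 in HBSS, 0.5 mM HEPES pH 7.4, 0.1% BSA, 0.2 mM IBMX. Lysate cAMP measured by HTRF against a standard curve; EC50 from cAMP-versus-concentration plots.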

In test [2] the target is T2, human somatostatin receptor subtype 2 (Homo sapiens, UniProt P30874).
T2 construct: expressed in transfected cells
Kind of test: cAMP assay for SST2R (inhibition of cAMP in CHO-K1 cells). Format: cell-based. Conditions: Table B; inhibition of cAMP via human SST2 receptor; read-out: SST2 potency. The method, boiled down:
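Agonism read as decrease in NKH477 (1.6 μM)-stimulated cAMP: compounds applied 20 min, 37° C, with 0.2 mM IBMX, to CHO-K1 stably expressing human SSTR2. cAMP quantified in lysates by time-resolved fluorescence (HTRF kit, 1-24 h RT), standard-curve regression, then EC50.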

pEC50: −log10 of the molar value. Read-outs that look alike come from different tables or passages of the source. A value given as a limit tells only on which side of the number the result lay.

T2 sequence (P30874 whole entry): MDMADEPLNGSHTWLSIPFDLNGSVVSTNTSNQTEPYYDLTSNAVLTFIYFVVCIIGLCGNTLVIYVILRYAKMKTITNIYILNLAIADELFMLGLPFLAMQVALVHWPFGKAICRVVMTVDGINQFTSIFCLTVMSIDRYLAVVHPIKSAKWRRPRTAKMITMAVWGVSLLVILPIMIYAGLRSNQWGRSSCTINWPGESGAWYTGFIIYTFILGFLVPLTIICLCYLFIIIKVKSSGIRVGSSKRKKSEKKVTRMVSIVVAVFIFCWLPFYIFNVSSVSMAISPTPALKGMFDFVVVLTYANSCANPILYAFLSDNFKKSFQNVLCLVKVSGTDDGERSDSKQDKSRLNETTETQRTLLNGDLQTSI
T1 sequence (P35346 whole entry): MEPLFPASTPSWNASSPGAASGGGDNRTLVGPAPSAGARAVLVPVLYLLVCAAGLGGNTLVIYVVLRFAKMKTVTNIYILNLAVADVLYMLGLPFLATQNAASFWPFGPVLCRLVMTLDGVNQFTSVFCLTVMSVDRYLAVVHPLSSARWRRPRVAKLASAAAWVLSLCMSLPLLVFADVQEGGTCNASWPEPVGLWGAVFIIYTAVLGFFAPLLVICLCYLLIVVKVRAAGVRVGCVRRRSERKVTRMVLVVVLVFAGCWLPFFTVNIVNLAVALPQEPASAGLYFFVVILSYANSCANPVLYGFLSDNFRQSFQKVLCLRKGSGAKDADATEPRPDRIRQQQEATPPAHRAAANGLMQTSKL

On to `CCC(CC)NC(=O)c1cnc(C#N)c(-c2cc(F)cc(F)c2)c1N1CC[C@H](N)C1` [1-72, 4-[(3S)-3-aminopyrrolidin-1-yl]-6-cyano-5-(3,5-difluorophenyl)-N-(pentan-3-yl)pyridine-3-carboxamide], for which the pEC50 in test [1] (Table A) was > 8.00; in test [1] (Table B), > 8.00; in test [2] it was 6.00 to 7.00. For the same molecule, in test [1] (Table B), the “Fold selectivity for SST5 vs SST2” value is listed as “+++ (+++=>500)”.

As for `C[C@H](NC(=O)c1cnc(OCCO)c(-c2cc(F)cc(F)c2)c1N1CC[C@](C)(N)C1)C1CC1` [1-246, 4-[(3S)-3-amino-3-methylpyrrolidin-1-yl]-N-[(1S)-1-cyclopropylethyl]-5-(3,5-difluorophenyl)-6-(2-hydroxyethoxy)pyridine-3-carboxamide], the pEC50 in test [1] (Table A) was > 8.00; in test [1] (Table B) it was > 8.00; in test [2], 6.00 to 7.00. Further, the “Fold selectivity for SST5 vs SST2” value in test [1] (Table B) is reported as “+++ (+++=>500)”.

For `COc1cc(C#N)cc(-c2cncc(C(=O)N[C@@H](C)C3CC3)c2N2CC[C@](C)(N)C2)c1` [1-96, 4-[(3S)-3-amino-3-methylpyrrolidin-1-yl]-5-(3-cyano-5-methoxyphenyl)-N-[(1S)-1-cyclopropylethyl]pyridine-3-carboxamide], the pEC50 in test [1] (Table A) is > 8.00; in test [1] (Table B), > 8.00; in test [2] it was 6.00 to 7.00. Also, the “Fold selectivity for SST5 vs SST2” value in test [1] (Table B) is reported as “++ (++=100 to 499)”.

As to `COc1ncc(C(=O)NC2CCC(F)(F)CC2)c(N2CC[C@H](N)C2)c1-c1cc(F)cc(Cl)c1` [1-284, 4-[(3S)-3-aminopyrrolidin-1-yl]-5-(3-chloro-5-fluorophenyl)-N-(4,4-difluorocyclohexyl)-6-methoxypyridine-3-carboxamide], the figures for the pEC50 in test [1] (Table A), in test [1] (Table B) and in test [2] were > 8.00, > 8.00 and 6.00 to 7.00, respectively. For the same molecule, in test [1] (Table B), the “Fold selectivity for SST5 vs SST2” value is recorded as “+++ (+++=>500)”.

As to `Cc1cccc2[nH]c(-c3cncc(C(=O)NC45CC(C4)C5)c3N3CC[C@](C)(N)C3)nc12` [2-15, 4-[(3S)-3-amino-3-methylpyrrolidin-1-yl]-N-{bicyclo[1,1,1]pentan-1-yl}-5-(4-methyl-1H-1,3-benzodiazol-2-yl)pyridine-3-carboxamide], the figures for the pEC50 in test [1] (Table A), in test [1] (Table B) and in test [2] were > 8.00, > 8.00 and 6.00 to 7.00, respectively. In addition, the “Fold selectivity for SST5 vs SST2” value in test [1] (Table B) is “++ (++=100 to 499)”.

Regarding `COc1ncc(C(=O)NC2CC(F)(F)C2)c(N2CC[C@H](N)C2)c1-c1cc(F)cc(Cl)c1` [1-285, 4-[(3S)-3-aminopyrrolidin-1-yl]-5-(3-chloro-5-fluorophenyl)-N-(3,3-difluorocyclobutyl)-6-methoxypyridine-3-carboxamide], the pEC50 in test [1] (Table A) is > 8.00; in test [1] (Table B) it was > 8.00; in test [2] it was 6.00 to 7.00. For the same molecule, the “Fold selectivity for SST5 vs SST2” value in test [1] (Table B) is recorded as “+++ (+++=>500)”.

Turning to `Cc1ncc(C(=O)NC23CC(F)(C2)C3)c(N2CC[C@H](N)C2)c1-c1cc(F)cc(Cl)c1` [1-278, 4-[(3S)-3-aminopyrrolidin-1-yl]-5-(3-chloro-5-fluorophenyl)-N-{3-fluorobicyclo[1.1.1]pentan-1-yl}-6-methylpyridine-3-carboxamide], the pEC50 in test [1] (Table A) is > 8.00; in test [1] (Table B), > 8.00; in test [2], < 6.00. Besides, the “Fold selectivity for SST5 vs SST2” value in test [1] (Table B) is given as “+++ (+++=>500)”.

With “4-[(3S)-3-amino-3-methylpyrrolidin-1-yl]-5-(3-cyano-5-methoxyphenyl)-N-[(1S)-1-cyclopropylethyl]-6-methylpyridine-3-carboxamide [1-280]”, the pEC50 is > 8.00 in test [1] (Table A), > 8.00 in test [1] (Table B) and 6.00 to 7.00 in test [2]. In test [1] (Table B), the “Fold selectivity for SST5 vs SST2” value is recorded as “+++ (+++=>500)”.

As to `C[C@]1(N)CCN(c2c(C(=O)NC34CC(C3)C4)cncc2-c2cc(F)cc(F)c2)C1` [1-21, 4-[(3S)-3-amino-3-methylpyrrolidin-1-yl]-N-{bicyclo[1.1.1]pentan-1-yl}-5-(3,5-difluorophenyl)pyridine-3-carboxamide], the pEC50 in test [1] (Table A) is > 8.00; in test [1] (Table B) it was > 8.00; in test [2], 7.00 to 8.00. Also, in test [1] (Table B), the “Fold selectivity for SST5 vs SST2” value is reported as “++ (++=100 to 499)”.

As to `CCOC(=O)CCCOc1ncc(C(=O)NC2CCC(F)(F)CC2)c(N2CC[C@H](N)C2)c1-c1cc(F)cc(F)c1` [1-202, ethyl 4-({4-[(3S)-3-aminopyrrolidin-1-yl]-5-[(4,4-difluorocyclohexyl)carbamoyl]-3-(3,5-difluorophenyl)pyridin-2-yl}oxy)butanoate], the pEC50 in test [1] (Table A) is > 8.00; in test [1] (Table B), > 8.00; in test [2], < 6.00. The “Fold selectivity for SST5 vs SST2” value in test [1] (Table B) is reported as “+++ (+++=>500)”.

As for `COc1ncc(C(=O)N[C@@H](C)C2CC2)c(N2CC[C@](C)(N)C2)c1-c1ccc(F)c(F)c1` [1-262, 4-[(3S)-3-amino-3-methylpyrrolidin-1-yl]-N-[(1S)-1-cyclopropylethyl]-5-(3,4-difluorophenyl)-6-methoxypyridine-3-carboxamide], the pEC50 in test [1] (Table A) was > 8.00; in test [1] (Table B), > 8.00; in test [2], 6.00 to 7.00. The “Fold selectivity for SST5 vs SST2” value in test [1] (Table B) is “+++ (+++=>500)”.

For `Cc1cc(C)cc(-c2cncc(C(=O)Nc3cc(F)cc(Cl)c3)c2N2CC[C@H](N)C2)c1` [1-3, 4-[(3 S)-3-aminopyrrolidin-1-yl]-N-(3-chloro-5-fluorophenyl)-5-(3,5-dimethylphenyl)pyridine-3-carboxamide], the results for the pEC50 in test [1] (Table A), in test [1] (Table B) and in test [2] were > 8.00, > 8.00 and 6.00 to 7.00, respectively. Besides, in test [1] (Table B), the “Fold selectivity for SST5 vs SST2” value is “+ (+=10 to 99)”.

Consider `Cc1ncc(C(=O)NCc2ccon2)c(N2CC[C@](C)(N)C2)c1-c1cc(F)cc(Cl)c1` [1-242, 4-[(3S)-3-amino-3-methylpyrrolidin-1-yl]-5-(3-chloro-5-fluorophenyl)-6-methyl-N-[(1,2-oxazol-3-yl)methyl]pyridine-3-carboxamide], for which the values for the pEC50 in test [1] (Table A), in test [1] (Table B) and in test [2] were > 8.00, > 8.00 and < 6.00, respectively. Further, the “Fold selectivity for SST5 vs SST2” value in test [1] (Table B) is recorded as “+++ (+++=>500)”.

Take `Cc1cc(C)cc(NC(=O)c2cncc(-c3cc(C)cc(C)c3)c2N2CC[C@H](N)C2)c1` [1-1, 4-[(3S)-3-aminopyrrolidin-1-yl]-N,5-bis(3,5-dimethylphenyl)pyridine-3-carboxamide]: the values for the pEC50 in test [1] (Table A), in test [1] (Table B) and in test [2] were > 8.00, > 8.00 and 7.00 to 8.00, respectively. In test [1] (Table B), the “Fold selectivity for SST5 vs SST2” value is “++ (++=100 to 499)”.

For `CC(N)C1CN(c2c(C(=O)NC34CC(C3)C4)cnc(C#N)c2-c2cc(F)cc(F)c2)C1` (stereo not shown) [1-100, 4-[3-(1-aminoethyl)azetidin-1-yl]-N-{bicyclo[1.1.1]pentan-1-yl}-6-cyano-5-(3,5-difluorophenyl)pyridine-3-carboxamide], the pEC50 in test [1] (Table A) is > 8.00; in test [1] (Table B), > 8.00; in test [2] it was < 6.00. In addition, the “Fold selectivity for SST5 vs SST2” value in test [1] (Table B) is given as “+++ (+++=>500)”.

Regarding `Cc1ncc(C(=O)N[C@@H](C)C(F)(F)F)c(N2CC[C@H](N)C2)c1-c1cc(F)cc(Cl)c1` [1-276, 4-[(3S)-3-aminopyrrolidin-1-yl]-5-(3-chloro-5-fluorophenyl)-6-methyl-N-[(2S)-1,1,1-trifluoropropan-2-yl]pyridine-3-carboxamide], the values for the pEC50 in test [1] (Table A), in test [1] (Table B) and in test [2] were > 8.00, > 8.00 and 6.00 to 7.00, respectively. For the same molecule, in test [1] (Table B), the “Fold selectivity for SST5 vs SST2” value was “++ (++=100 to 499)”.
